Source: ChEMBL document CHEMBL1124790, “Angiotensin converting enzyme inhibitors. 10. Aryl sulfonamide substituted N-[1-carboxy-3-phenylpropyl]-L-alanyl-L-proline derivatives as novel antihypertensives” (J Med Chem, 1990)
Values belong to the molecule of their own block, whether it stands above or below them.

What was measured:
[1] = target: T1, Angiotensin-converting enzyme (Oryctolagus cuniculus) (UniProt P12822); assay: Time to inhibit maximum angiotensin I converting enzyme in rabbit lung; type: functional, tissue-based
T1 sequence (whole entry): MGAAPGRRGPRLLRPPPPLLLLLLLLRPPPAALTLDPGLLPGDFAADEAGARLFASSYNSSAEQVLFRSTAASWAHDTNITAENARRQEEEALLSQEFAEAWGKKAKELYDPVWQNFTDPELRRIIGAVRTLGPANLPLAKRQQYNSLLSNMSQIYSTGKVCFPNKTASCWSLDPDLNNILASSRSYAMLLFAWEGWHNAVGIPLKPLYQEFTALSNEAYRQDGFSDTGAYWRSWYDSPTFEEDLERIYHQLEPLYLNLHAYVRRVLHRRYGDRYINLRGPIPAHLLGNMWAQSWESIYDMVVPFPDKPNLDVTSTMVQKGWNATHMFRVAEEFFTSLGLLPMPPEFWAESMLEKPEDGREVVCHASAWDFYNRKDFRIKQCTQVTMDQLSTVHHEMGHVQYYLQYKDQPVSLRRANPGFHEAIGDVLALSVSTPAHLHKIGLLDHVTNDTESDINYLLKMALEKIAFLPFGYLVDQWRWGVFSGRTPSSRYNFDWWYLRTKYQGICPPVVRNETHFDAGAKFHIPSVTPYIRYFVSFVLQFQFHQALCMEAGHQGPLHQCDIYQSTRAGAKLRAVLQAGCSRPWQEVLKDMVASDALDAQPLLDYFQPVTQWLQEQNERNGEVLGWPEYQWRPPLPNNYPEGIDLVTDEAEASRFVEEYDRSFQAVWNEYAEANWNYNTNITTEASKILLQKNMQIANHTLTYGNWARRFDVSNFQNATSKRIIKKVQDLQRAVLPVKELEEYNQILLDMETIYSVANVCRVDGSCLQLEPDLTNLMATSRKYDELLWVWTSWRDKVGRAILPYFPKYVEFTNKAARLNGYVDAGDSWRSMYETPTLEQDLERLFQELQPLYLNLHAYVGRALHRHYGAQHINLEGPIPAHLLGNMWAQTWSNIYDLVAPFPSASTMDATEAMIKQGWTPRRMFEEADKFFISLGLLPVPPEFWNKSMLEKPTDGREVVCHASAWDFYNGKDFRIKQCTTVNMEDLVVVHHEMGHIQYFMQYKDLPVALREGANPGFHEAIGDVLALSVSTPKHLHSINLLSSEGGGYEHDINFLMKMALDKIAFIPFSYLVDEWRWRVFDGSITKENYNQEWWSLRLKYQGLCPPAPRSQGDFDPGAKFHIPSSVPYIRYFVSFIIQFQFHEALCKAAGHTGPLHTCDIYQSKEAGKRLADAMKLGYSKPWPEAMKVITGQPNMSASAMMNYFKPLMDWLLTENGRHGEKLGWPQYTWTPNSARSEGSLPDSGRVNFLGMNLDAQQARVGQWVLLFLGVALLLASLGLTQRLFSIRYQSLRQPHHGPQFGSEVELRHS

[2] = target: T1, Angiotensin-converting enzyme (Oryctolagus cuniculus); assay: Time during which angiotensin I converting enzyme inhibition is greater than or equa to 30% in rabbit lung; type: functional, tissue-based
[3] = target: T2, Angiotensin-converting enzyme (Oryctolagus cuniculus, UniProt P12822); assay: In vitro inhibition of angiotensin I converting enzyme (ACE) in rabbit lung; type: tissue-based
T2 sequence (P12822 whole entry): T1 sequence (whole entry)

[4] = target: T1, Angiotensin-converting enzyme (Oryctolagus cuniculus); assay: In vivo inhibition of angiotensin I converting enzyme (ACE) in rabbit lung after (iv) administration of a dose of 10(mg/kg); type: organism-based
Rattus norvegicus [5] = assay: Percent change in K+ in fasted rats at the dose of 100 mg/kg (iv), 0-5 h; type: functional
Rattus norvegicus [6] = assay: Percent change in K+ in fasted rats at the dose of 100 mg/kg (iv), 5-24 h; type: functional
Rattus norvegicus [7] = assay: Percent change in Na+ in fasted rats at the dose of 100 mg/kg (iv), 0-5 h; type: functional
Rattus norvegicus [8] = assay: Percent change in Na+in fasted rats at the dose of 100 mg/kg (iv), 5-24 h; type: functional
Rattus norvegicus [9] = assay: Percent change in urinary volume in fasted rats at the dose of 100 mg/kg (iv), 0-5 h; type: functional, Urine
Rattus norvegicus [10] = assay: Percent change in urinary volume in fasted rats at the dose of 100 mg/kg (iv), 5-24 h; type: functional, Urine
[11] = target: T2, Angiotensin-converting enzyme; assay: In vitro inhibition of angiotensin I converting enzyme(ACE) in rabbit lung; type: tissue-based
[12] = target: T1, Angiotensin-converting enzyme (Oryctolagus cuniculus); assay: In vivo inhibition of angiotensin I converting enzyme (ACE) in rabbit lung after (po) administration of a dose of 10(mg/kg); type: organism-based
Rattus norvegicus [13] = assay: Percent change in K+ in fasted rats at the dose of 82 mg/kg (iv), 0-5 h; type: functional
Rattus norvegicus [14] = assay: Antihypertensive activity was determined in spontaneously hypertensive rat at a dose of 100 mg/kg(ip) administration; type: functional
Rattus norvegicus [15] = assay: Percent change in urinary volume in fasted rats at the dose of 82 mg/kg (iv), 0-5 h; type: functional, Urine
Rattus norvegicus [16] = assay: Time duration was determined for the actioni (determination of MAP in case of oral administration) in rat; type: functional
Rattus norvegicus [17] = assay: Time duration was determined for the actioni (determination of MAP in ip administration) in rat; type: functional
Rattus norvegicus [18] = species: Rattus norvegicus; assay: The onset hour was determined in rat; type: functional
Rattus norvegicus [19] = assay: Percent change in Na+ in fasted rats at the dose of 82 mg/kg (iv), 0-5 h; type: functional
Rattus norvegicus [20] = assay: Antihypertensive activity was determined in spontaneously hypertensive rat at a dose of 100 mg/kg(po) administration; type: functional
[21] = tested on: Angiotensin-converting enzyme (Sus scrofa); assay: Time to inhibit maximum angiotensin I converting enzyme in Hog plasma
[22] = tested on: Angiotensin-converting enzyme (Sus scrofa); assay: Time during which angiotensin I converting enzyme inhibition is greater than or equal to 30% in Hog plasma

Time to max. inhibition [1]: 0.3 h
Duration [2]: 3.7 h
IC50 [3]: 6.5 nM
inhibition [4]: 76%
SMILES: C[C@H](N[C@@H](CCc1ccccc1)C(=O)O)C(=O)N1C[C@@H](NS(=O)(=O)c2cc(S(N)(=O)=O)c(N)cc2Cl)C[C@H]1C(=O)O
Change (Rattus norvegicus [5]): 0%
Change (Rattus norvegicus [6]): 0%
Change (Rattus norvegicus [7]): -57%
Change (Rattus norvegicus [8]): 38%
Change (Rattus norvegicus [9]): -49%
Change (Rattus norvegicus [10]): 60%

Time to max. inhibition [1]: 0.3 h
Duration [2]: 3.7 h
IC50 [11]: 22 nM
inhibition [4]: 100%
inhibition [12]: 38%
Time to max. inhibition [21]: 2.6 h
Duration [22]: 1.6 h
SMILES: C[C@H](N[C@@H](CCc1ccccc1)C(=O)O)C(=O)N1C[C@H](OCCC2Nc3cc(Cl)c(S(N)(=O)=O)cc3S(=O)(=O)N2)C[C@H]1C(=O)O (stereo not given in full)
Change (Rattus norvegicus [13]): 80%
Change in MAP (Rattus norvegicus [14]): -35%
Change (Rattus norvegicus [15]): 0%
Duration (Rattus norvegicus [16]): 19 h
Duration (Rattus norvegicus [17]): >14 h
Onset (Rattus norvegicus [18]): 0.25 h
Change (Rattus norvegicus [19]): 60%
Change in MAP (Rattus norvegicus [20]): -19%
